What was measured:
photoreceptor cells = test: light-induced retina damage model (bright light-treated photoreceptors); format: in vivo, Sprague-Dawley rats; conditions: rat, 30 mg/kg i.p. pretreatment
Description: The light-induced retina damage model selectively promotes the killing of photoreceptor cells as it occurs in age-related macular degeneration and retinitis pigmentosa.
Sprague-Dawley rats (150-175 g males) were dark adapted for 3 days. Two hours before light treatment they were injected i.p. with LAU-8080 (30 mg/kg) suspended in a vehicle (cyclo-dextrin) or just vehicle. A third group received no injection. Rats were placed in 5 inch diameter cylindrical lucite tubes which were then placed within an 8-light array of 10 inch diameter fluorescent lights (40 Watt, G.E. cool white; 350 μE/m^2·s; 25 klux) for up to 5 hours. After 10 days in darkness, eyes were collected and prepared for histology. […] The profile of the photoreceptor nuclear layer of the light+vehicle, light+vehicle+LAU-8080, and dark rat retinas were compared. The percent cell loss under each condition was calculated against the dark animal controls.

[1] = test system: angiogenesis in the mouse cornea; test: mouse corneal micropocket assay (PAF-induced angiogenesis); format: in vivo, mice
From the text: The mouse corneal micropocket assay according to the procedure of B. M. Kenyon et al., “A model of angiogenesis in the mouse cornea,” Invest. Ophthalmol. Vis. Sci. vol. 37, pp. 1625-1632 (1996), was used to test whether LAU-8080 would inhibit angiogenesis.
Mouse corneal micropocket assay: Corneal micropockets were created with a modified von Graefe knife in both eyes of 5- to 6-weeks old mice. Pellets containing vehicle of 0.1% BSA in PBS with 12% polyhydroxyethylmetacrylate (Hydron) were implanted in the corneas at 1 mm from the limbus of the mice for a control. For the PAF experiment, 500 ng cPAF was added to the pellet with vehicle. For the PAF-LAU experiment, mice were implanted with Hydron pellets containing 0.1% BSA in PBS, 500 ng CPAF, and then treated with the PAF antagonist LAU-8080 (30 μg/g body weight), i.p., once a day. Six days later, corneal pictures were taken under the microscope and vessel length and clock hours of circumferential neovascularization were measured.

[2] = test system: PAF binding site of the synaptosomal, plasma membrane; conditions: cited from earlier work
[3] = test system: middle cerebral artery occlusion and reperfusion; test: middle cerebral artery occlusion (MCAO) and reperfusion stroke model; format: in vivo, mice (C57BL/6)
From the text: To study the properties of LAU-8080 in an animal model of stroke, the technique of occluding the middle cerebral artery (middle cerebral artery occlusion, “MCAO”) which has been adapted to the mouse was used. The mouse middle cerebral artery occlusion is a well-recognized model of focal stroke as neuronal damage occurs when ischemia-reperfusion damages the brain. Adult male mice (C57BL/6) weighing 22-25 grams were induced to anesthesia with 1/70/30% halothane/nitrous oxide/oxygen, on a temperature controlled blanket. A line of PAF-R deficient mice (PAF receptor Knock-out mice), as described in S. Ishi et al., “Impaired anaphylactic responses with intact sensitivity to endotoxin in mice lacking a platelet-activating factor,” J. Exp. Med., vol. 187, pp. 1779-1788 (1998), was also used. The common carotid and external carotid arteries were exposed and dissected from surrounding tissue; the right external carotid artery was ligated. The right common carotid was temporarily occluded. A small arteriotomy to the external carotid artery was made so the occluding filament was introduced and advanced to the common carotid artery, and redirected into the internal carotid artery. The filament was advanced so that the blunted tip was placed in the anterior cerebral artery and the side of the filament occluded the origin of the middle cerebral artery. The common carotid artery was gently released, restoring blood flow to the carotid system. The wound was inspected for bleeding. All retracting sutures were removed, and the wound was closed. The anesthetic gases were stopped, and the animal was given oxygen until fully awake, then returned to his cage. After 60 minutes of occlusion, animals were reperfused by removal occluding filament. Animals were placed under anesthesia again, the occluding suture was delicately withdrawn from the arterial lumen, restoring blood flow to the territory of the middle cerebral artery. The wound was closed by interrupted silk sutures. The anesthetic gases were stopped, and the animal was given oxygen until fully awake.
The treated animals received a single i.p. injection of LAU-8080 (30 mg/kg) at 1 hour after reperfusion started, and control animals received vehicle injection (2-hydroxypropyl-β-cyclodextrin).
Scores were collected according Bederson's classification: a score of “0” indicates the animal moved freely changing directions. […]
(§1) Volumetric changes in infarcted brain regions in mice after 1 hour MCAO and 24-48 hours reperfusion was obtained by staining brain slices 1 mm thick with 2% 2,3,5-triphenyltetrazolium chloride (TTC). Quantitative analysis of the volume of the infarcted area was obtained by image-analysis.

[4] = test system: PAF binding sites of microsomal membranes; conditions: cited from earlier work
[5] = test system: middle cerebral artery occlusion and reperfusion; test: MCAO and reperfusion stroke model in PAF receptor Knock-out mice; format: in vivo, PAF-R deficient mice (PAF receptor Knock-out mice)
From the text: To study the properties of LAU-8080 in an animal model of stroke, the technique of occluding the middle cerebral artery (middle cerebral artery occlusion, “MCAO”) which has been adapted to the mouse was used. The mouse middle cerebral artery occlusion is a well-recognized model of focal stroke as neuronal damage occurs when ischemia-reperfusion damages the brain. Adult male mice (C57BL/6) weighing 22-25 grams were induced to anesthesia with 1/70/30% halothane/nitrous oxide/oxygen, on a temperature controlled blanket. A line of PAF-R deficient mice (PAF receptor Knock-out mice), as described in S. Ishi et al., “Impaired anaphylactic responses with intact sensitivity to endotoxin in mice lacking a platelet-activating factor,” J. Exp. Med., vol. 187, pp. 1779-1788 (1998), was also used. The common carotid and external carotid arteries were exposed and dissected from surrounding tissue; the right external carotid artery was ligated. The right common carotid was temporarily occluded. […]
as §1

For `COc1ccc(NC(=S)N2CCc3c(sc4c3C(c3ccccc3Cl)=NCc3nnc(C)n3-4)C2)cc1` [LAU-8080, 6-(2-chlorophenyl)-9-[(4-methoxyphenyl)thiocarbamoyl]-1-methyl-7,8,9,10-tetrahydro-4H-pyrido[4′,3′:4,5]thieno[3,2-f]-1,2,4-triazolo[4,3-a]-1,4-diazepine], the “cell loss in an area near the center of the photodamage region” value (photoreceptor cells) was “complete lack of cell loss”, the “depth of photoreceptor nuclear layer” value (photoreceptor cells) was 12 cells deep and the “angiogenesis (vessel length and clock hours of circumferential neovascularization)” value ([1]; 500 ng cPAF pellet, LAU-8080 30 μg/g body weight i.p. once a day, 6 days, p<0.05) was “significantly reduced”. The “displacement of PAF” value [2] was “not from the synaptosomal, plasma membrane”, the “neurological scores (Bederson's classification)” value ([3]; 30 mg/kg i.p. 1 hour after reperfusion, noticeable 24 hours after reperfusion) was “significative improvement” and the infarct volume ([3]; 1 hour MCAO and 48 hours reperfusion, injection 1 hour after reperfusion onset, p<0.0026) was “significant reduction”. The survival ([3]; 1 hour MCAO, single i.p. 30 mg/kg 1 hour after onset of reperfusion, followed-up 14 days, n=20, p<0.04 vs vehicle) was 35%, the “effect of injection at different times during the procedure versus 1 hour after reperfusion” value ([3]; MCAO mice) was “did not differ significantly” and the “displacement of PAF” value [4] was “displace PAF from microsomal membranes”. For the same molecule, the survival ([5]; PAF knock-out mice, injection one hour after reperfusion, p<0.0074) was “significative protection” and the infarct volume ([5]; PAF receptor Knock-out mice) was “small reduction”.

With “1-O-alkyl-2-acetyl-sn-glycero-3-phosphocholine [PAF, reference compound]” the “angiogenesis (vessel length and clock hours) induced by pellet” value ([1]; pellet with 500 ng cPAF, 6 days after implantation, versus vehicle pellet) was “strongly induced”.

— patent US6987105B2, “Synthesis and use of thienotriazolodiazepines” (Board of Supervisors of Louisiana State University And …, priority 2000, dated 2006)
